Results published in PubChem BioAssay (NCI).
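Following 48 hours of exposure in 96-well plates, responses at five concentrations were used to interpolate endpoints linearly. TGI: concentration producing complete growth inhibition.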

Columns and labels:
Test in all cases: NCI-60 cell line screen, 48 h
786-0 renal = test system: 786-0 renal
A549 NSCLC = test system: A549 NSCLC
ACHN renal = test system: ACHN renal
CAKI-1 renal = test system: CAKI-1 renal
CCRF-CEM leukemia = test system: CCRF-CEM leukemia
COLO 205 colon = test system: COLO 205 colon
DLD-1 colon = test system: DLD-1 colon
DMS 114 small cell lung = test system: DMS 114 small cell lung
DMS 273 small cell lung = test system: DMS 273 small cell lung
EKVX NSCLC = test system: EKVX NSCLC
HCC-2998 colon = test system: HCC-2998 colon
HCT-116 colon = test system: HCT-116 colon
HCT-15 colon = test system: HCT-15 colon
HL-60(TB) leukemia = test system: HL-60(TB) leukemia
HOP-18 NSCLC = test system: HOP-18 NSCLC
HOP-62 NSCLC = test system: HOP-62 NSCLC
HOP-92 NSCLC = test system: HOP-92 NSCLC
HT29 colon = test system: HT29 colon
IGROV1 ovarian = test system: IGROV1 ovarian
K-562 leukemia = test system: K-562 leukemia
KM12 colon = test system: KM12 colon
KM20L2 colon = test system: KM20L2 colon
LXFL 529 NSCLC = test system: LXFL 529 NSCLC
M14 melanoma = test system: M14 melanoma
M19-MEL melanoma = test system: M19-MEL melanoma
MOLT-4 leukemia = test system: MOLT-4 leukemia
NCI-H226 lung = test system: NCI-H226 lung
NCI-H23 lung = test system: NCI-H23 lung
NCI-H460 lung = test system: NCI-H460 lung
NCI-H522 lung = test system: NCI-H522 lung
OVCAR-3 ovarian = test system: OVCAR-3 ovarian
OVCAR-4 ovarian = test system: OVCAR-4 ovarian
OVCAR-5 ovarian = test system: OVCAR-5 ovarian
OVCAR-8 ovarian = test system: OVCAR-8 ovarian
SF-268 CNS = test system: SF-268 CNS
SF-295 CNS = test system: SF-295 CNS
SF-539 CNS = test system: SF-539 CNS
SK-MEL-28 melanoma = test system: SK-MEL-28 melanoma
SK-MEL-5 melanoma = test system: SK-MEL-5 melanoma
SK-OV-3 ovarian = test system: SK-OV-3 ovarian
SN12C renal = test system: SN12C renal
SNB-19 CNS = test system: SNB-19 CNS
SNB-75 CNS = test system: SNB-75 CNS
SNB-78 CNS = test system: SNB-78 CNS
SR leukemia = test system: SR leukemia
SW-620 colon = test system: SW-620 colon
TK-10 renal = test system: TK-10 renal
U251 CNS = test system: U251 CNS
UACC-257 melanoma = test system: UACC-257 melanoma
UACC-62 melanoma = test system: UACC-62 melanoma
UO-31 renal = test system: UO-31 renal
A498 renal = test system: A498 renal
LOX IMVI melanoma = test system: LOX IMVI melanoma
MALME-3M melanoma = test system: MALME-3M melanoma
RPMI-8226 leukemia = test system: RPMI-8226 leukemia
RXF 393 renal = test system: RXF 393 renal
SK-MEL-2 melanoma = test system: SK-MEL-2 melanoma

C=C1CC(c2ccc(O)c(OC)c2)Oc2c(OC)cccc21 (configuration not stated)
TGI (786-0 renal): > 100 µM | TGI (A549 NSCLC): > 100 µM | TGI (ACHN renal): > 100 µM | TGI (CAKI-1 renal): > 100 µM | TGI (CCRF-CEM leukemia): 93.7 µM | TGI (COLO 205 colon): > 100 µM | TGI (DLD-1 colon): > 100 µM | TGI (DMS 114 small cell lung): 56.1 µM | TGI (DMS 273 small cell lung): 55.2 µM | TGI (EKVX NSCLC): > 100 µM | TGI (HCC-2998 colon): > 100 µM | TGI (HCT-116 colon): > 100 µM | TGI (HCT-15 colon): > 100 µM | TGI (HL-60(TB) leukemia): 49.9 µM | TGI (HOP-18 NSCLC): > 100 µM | TGI (HOP-62 NSCLC): > 100 µM | TGI (HOP-92 NSCLC): 53.1 µM | TGI (HT29 colon): > 100 µM | TGI (IGROV1 ovarian): > 100 µM | TGI (K-562 leukemia): 64.8 µM | TGI (KM12 colon): > 100 µM | TGI (KM20L2 colon): > 100 µM | TGI (LXFL 529 NSCLC): > 100 µM | TGI (M14 melanoma): > 100 µM | TGI (M19-MEL melanoma): > 100 µM | TGI (MOLT-4 leukemia): > 100 µM | TGI (NCI-H226 lung): > 100 µM | TGI (NCI-H23 lung): > 100 µM | TGI (NCI-H460 lung): > 100 µM | TGI (NCI-H522 lung): 49.5 µM | TGI (OVCAR-3 ovarian): > 100 µM | TGI (OVCAR-4 ovarian): > 100 µM | TGI (OVCAR-5 ovarian): > 100 µM | TGI (OVCAR-8 ovarian): > 100 µM | TGI (SF-268 CNS): > 100 µM | TGI (SF-295 CNS): > 100 µM | TGI (SF-539 CNS): 52.2 µM | TGI (SK-MEL-28 melanoma): > 100 µM | TGI (SK-MEL-5 melanoma): > 100 µM | TGI (SK-OV-3 ovarian): > 100 µM | TGI (SN12C renal): > 100 µM | TGI (SNB-19 CNS): > 100 µM | TGI (SNB-75 CNS): > 100 µM | TGI (SNB-78 CNS): > 100 µM | TGI (SR leukemia): 61.3 µM | TGI (SW-620 colon): > 100 µM | TGI (TK-10 renal): > 100 µM | TGI (U251 CNS): > 100 µM | TGI (UACC-257 melanoma): > 100 µM | TGI (UACC-62 melanoma): > 100 µM | TGI (UO-31 renal): > 100 µM

O=C1c2ccccc2C2(O)Nc3c(ccc4ccccc34)C12O (configuration not stated)
TGI (786-0 renal): > 100 µM | TGI (A498 renal): > 100 µM | TGI (A549 NSCLC): > 100 µM | TGI (ACHN renal): > 100 µM | TGI (CAKI-1 renal): > 100 µM | TGI (CCRF-CEM leukemia): > 100 µM | TGI (COLO 205 colon): > 100 µM | TGI (DLD-1 colon): > 100 µM | TGI (DMS 114 small cell lung): > 100 µM | TGI (DMS 273 small cell lung): > 100 µM | TGI (EKVX NSCLC): > 100 µM | TGI (HCC-2998 colon): > 100 µM | TGI (HCT-116 colon): > 100 µM | TGI (HCT-15 colon): > 100 µM | TGI (HL-60(TB) leukemia): > 100 µM | TGI (HOP-18 NSCLC): > 100 µM | TGI (HOP-62 NSCLC): > 100 µM | TGI (HT29 colon): > 100 µM | TGI (IGROV1 ovarian): > 100 µM | TGI (K-562 leukemia): > 100 µM | TGI (KM12 colon): > 100 µM | TGI (KM20L2 colon): > 100 µM | TGI (LOX IMVI melanoma): > 100 µM | TGI (LXFL 529 NSCLC): > 100 µM | TGI (M14 melanoma): > 100 µM | TGI (M19-MEL melanoma): > 100 µM | TGI (MALME-3M melanoma): > 100 µM | TGI (MOLT-4 leukemia): > 100 µM | TGI (NCI-H226 lung): > 100 µM | TGI (NCI-H23 lung): > 100 µM | TGI (NCI-H460 lung): > 100 µM | TGI (NCI-H522 lung): > 100 µM | TGI (OVCAR-3 ovarian): > 100 µM | TGI (OVCAR-4 ovarian): > 100 µM | TGI (OVCAR-5 ovarian): > 100 µM | TGI (OVCAR-8 ovarian): > 100 µM | TGI (RPMI-8226 leukemia): > 100 µM | TGI (RXF 393 renal): > 100 µM | TGI (SF-268 CNS): > 100 µM | TGI (SF-295 CNS): > 100 µM | TGI (SF-539 CNS): > 100 µM | TGI (SK-MEL-2 melanoma): > 100 µM | TGI (SK-MEL-28 melanoma): > 100 µM | TGI (SK-MEL-5 melanoma): > 100 µM | TGI (SK-OV-3 ovarian): > 100 µM | TGI (SN12C renal): > 100 µM | TGI (SNB-19 CNS): > 100 µM | TGI (SNB-75 CNS): > 100 µM | TGI (SNB-78 CNS): > 100 µM | TGI (SW-620 colon): > 100 µM | TGI (TK-10 renal): > 100 µM | TGI (U251 CNS): > 100 µM | TGI (UACC-257 melanoma): > 100 µM | TGI (UACC-62 melanoma): > 100 µM | TGI (UO-31 renal): > 100 µM

COC1OC(C)C(OC(=O)C(C)(C)C)C(OS(=O)(=O)c2ccc(C)cc2)C1OS(=O)(=O)c1ccc(C)cc1 (configuration not stated)
TGI (786-0 renal): > 100 µM | TGI (A549 NSCLC): > 100 µM | TGI (ACHN renal): > 100 µM | TGI (CAKI-1 renal): > 100 µM | TGI (CCRF-CEM leukemia): > 100 µM | TGI (COLO 205 colon): > 100 µM | TGI (DLD-1 colon): > 100 µM | TGI (DMS 114 small cell lung): > 100 µM | TGI (DMS 273 small cell lung): > 100 µM | TGI (HCC-2998 colon): > 100 µM | TGI (HCT-116 colon): > 100 µM | TGI (HCT-15 colon): > 100 µM | TGI (HL-60(TB) leukemia): > 100 µM | TGI (HOP-18 NSCLC): > 100 µM | TGI (HOP-62 NSCLC): > 100 µM | TGI (HT29 colon): > 100 µM | TGI (IGROV1 ovarian): > 100 µM | TGI (K-562 leukemia): > 100 µM | TGI (KM12 colon): > 100 µM | TGI (KM20L2 colon): > 100 µM | TGI (LXFL 529 NSCLC): > 100 µM | TGI (M14 melanoma): > 100 µM | TGI (M19-MEL melanoma): > 100 µM | TGI (MALME-3M melanoma): > 100 µM | TGI (MOLT-4 leukemia): > 100 µM | TGI (NCI-H226 lung): > 100 µM | TGI (NCI-H23 lung): > 100 µM | TGI (NCI-H460 lung): > 100 µM | TGI (NCI-H522 lung): > 100 µM | TGI (OVCAR-3 ovarian): > 100 µM | TGI (OVCAR-4 ovarian): > 100 µM | TGI (OVCAR-5 ovarian): > 100 µM | TGI (OVCAR-8 ovarian): > 100 µM | TGI (RPMI-8226 leukemia): > 100 µM | TGI (RXF 393 renal): > 100 µM | TGI (SF-268 CNS): > 100 µM | TGI (SF-295 CNS): > 100 µM | TGI (SF-539 CNS): > 100 µM | TGI (SK-MEL-2 melanoma): > 100 µM | TGI (SK-MEL-28 melanoma): > 100 µM | TGI (SK-MEL-5 melanoma): > 100 µM | TGI (SK-OV-3 ovarian): > 100 µM | TGI (SN12C renal): > 100 µM | TGI (SNB-19 CNS): > 100 µM | TGI (SNB-75 CNS): > 100 µM | TGI (SNB-78 CNS): > 100 µM | TGI (SR leukemia): > 100 µM | TGI (SW-620 colon): > 100 µM | TGI (U251 CNS): > 100 µM | TGI (UACC-257 melanoma): > 100 µM | TGI (UO-31 renal): > 100 µM
